From patent publication US8513233B2, “Pyrimidinyl-propionic acid derivatives and their use as PPAR agonists” (Shanghai Institute of Materia Medica, CAS, priority 2007, dated 2013)
Read-outs that look alike come from different tables or passages of the source.

Key:
PPAR-γ = molecular target: T1, PPAR-γ (Homo sapiens, UniProt P37231); test: Transient transfection and transcription assay (luciferase reporter, U2OS cells); type: cell-based; conditions: 24 h treatment
T1 construct: expressed in transfected cells; host or cells: U2OS cells, transiently transfected with pcDNA3.1 expression vectors (FuGene6)
T1 sequence (P37231 1-505): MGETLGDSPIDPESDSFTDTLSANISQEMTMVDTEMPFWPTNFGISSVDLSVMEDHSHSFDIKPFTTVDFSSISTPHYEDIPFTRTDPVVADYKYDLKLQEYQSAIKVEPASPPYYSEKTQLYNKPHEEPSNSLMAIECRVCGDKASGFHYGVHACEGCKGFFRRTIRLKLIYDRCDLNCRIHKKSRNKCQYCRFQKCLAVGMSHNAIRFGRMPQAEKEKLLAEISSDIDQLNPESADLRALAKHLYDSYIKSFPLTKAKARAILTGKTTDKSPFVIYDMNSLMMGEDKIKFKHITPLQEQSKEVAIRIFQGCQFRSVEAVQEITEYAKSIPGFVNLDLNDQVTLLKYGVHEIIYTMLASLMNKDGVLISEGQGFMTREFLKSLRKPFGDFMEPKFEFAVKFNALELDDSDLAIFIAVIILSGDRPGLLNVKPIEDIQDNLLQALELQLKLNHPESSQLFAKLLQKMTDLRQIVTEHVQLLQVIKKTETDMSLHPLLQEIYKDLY
T1 sequence (P19793 1-462 partner): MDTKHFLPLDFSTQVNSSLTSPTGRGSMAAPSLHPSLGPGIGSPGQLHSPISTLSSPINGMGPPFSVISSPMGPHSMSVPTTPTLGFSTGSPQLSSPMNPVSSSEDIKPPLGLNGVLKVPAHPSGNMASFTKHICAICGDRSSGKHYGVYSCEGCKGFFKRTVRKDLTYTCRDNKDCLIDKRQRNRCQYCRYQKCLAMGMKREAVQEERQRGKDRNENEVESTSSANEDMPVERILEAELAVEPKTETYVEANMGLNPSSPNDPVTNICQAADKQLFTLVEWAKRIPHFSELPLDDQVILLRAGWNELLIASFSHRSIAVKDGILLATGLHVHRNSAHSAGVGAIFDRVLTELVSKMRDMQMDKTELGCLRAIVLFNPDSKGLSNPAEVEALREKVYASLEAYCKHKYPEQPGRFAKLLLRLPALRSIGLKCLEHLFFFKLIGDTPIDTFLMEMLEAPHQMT
Procedure: cDNAs for Human RXR, PPAR were obtained by RTPCR from the human liver or adipose tissues. Amplified cDNAs were cloned into pcDNA3.1 expression vector and the inserts were confirmed by sequencing. U2OS cells were cultured in McCoy's 5A with 10% heat-inactivated fetal bovine serum in a humidified 5% CO2 atmosphere at 37° C. Cells were seeded in 96-well plates the day before transfection to give a confluence of 50-80% at transfection. A total of 60 ng of DNA containing 10 ng of hRXR, 10 ng of pCMV Gal, 10 ng of nuclear receptor expression vectors and 30 ng of the corresponding reporters were cotransfected per well using FuGene6 transfection reagent according to the manufacturer's instructions. […] The final concentration of DMSO in culture medium was 0.1%. […] Luciferase activity was monitored using the luciferase assay kit according to the manufacturers instructions. Light emission was read in a Labsystems Ascent Fluoroskan reader. To measure galactosidase activity to normalize the luciferase data, 50 IL of supernatant from each transfection lysate was transferred to a new microplate. Galactosidase assays were performed in the microwell plates using a kit from Promega and read in a microplate reader. Compounds were tested in five concentrations ranging from 0.01 to 10 μM. […] The results were expressed as means (SD).

HepG2 = test: Growth inhibition, modified MTT assay, HepG2; type: cell-based; conditions: Homo sapiens, mean of 3 independent tests
Procedure: (§1) The growth inhibition was evaluated by the modified MTT assay. Briefly, the cells were seeded at 1×10^4 cells/well in 96-well plates (Falcon, Calif., USA), and incubated for 24 h in […] culture media with 10% FCS. The media were then replaced by serum-free medium. After 24 h, the media were placed in triplicate with grade concentrations of compounds. As controls, the cells were cultivated in DMEM/F12 only. The cells were then treated by MTT (Sigma, USA) assay, […] (5 g/L) for 4 h. After the removal of the supernatant, the purple-blue sediment was dissolved in 100 μL/well DMSO, and the optical densities were read on the multi-well scanning spectrophotometer (Labsystems Dragon, Finland) at 492 nm (A492). The growth inhibition rate (GIR) of the treated cells was calculated using Equation: GIR(%)={1−[A490/A490(control)]}×100% The results were also converted to IC50 (the compound concentration required for 50% growth inhibition of tumor cells), which were calculated by using the sigmoidal fitting model by the Origin 7.0 software (OriginLab, Northampton, Mass., USA). The mean IC50 was determined from the results of 3 independent tests.

MCF-7 = test: Growth inhibition, modified MTT assay, MCF-7; type: cell-based; conditions: Homo sapiens, MCF7; MCF-7, MTT, mean of 3 independent tests
Procedure: as §1

T24 = test: Growth inhibition, modified MTT assay, T24; type: cell-based; conditions: Homo sapiens, T-24, mean of 3 independent tests
Procedure: as §1

SPC-A1 = test: Growth inhibition, modified MTT assay, SPC-A1; type: cell-based; conditions: SPCA1, mean of 3 independent tests
Procedure: as §1

[1] = system: Han:SPRD rat model of ADPKD; type: in vivo; conditions: for 24-hour urine protein level / Blood urea nitrogen (BUN) levels: Treatment Group 10 mg/kg.d
Text: Han: SPRD rats were obtained from our own breeding colony that is derived from animals that were kindly provided to us by Mayo Clinic (Rochester Minn.), All animal procedures and care were taken at the SPF-level Laboratory Animal Center of the Second Military Medical University (Shanghai, […].). Carboxymethyl cellulose sodium (CMC-Na) was purchased from Shanghai Chemical Reagent Company. Automatic clinical chemistry analyzer (Hitachi Clinical Analyzer 7080).
2.1 Experimental protocol: A total of 48 Han:SPRD rats (about ⅔ rats were Cy/+, ⅓ were +/+, homozygote rats −/− die within 3 weeks), all at 3 weeks of age, were randomized into 2 groups: negative control group and treatment groups (10 mg/kg.d compound 2). The rats of negative control group were given 1% CMC-Na, while the rats of treatment group were given 10 mg/kg.d compound 2 (suspended in 1% CMC-Na) by daily gavage from 3 weeks through 11 weeks of age, removal +/+ rats in both groups, then general animal feeds were given to rats in control group, the rats of treatment group were given animal feeds added by 0.03% of compound 2 (approximately 10 mg/kg. d), both groups were maintained with free access to water. Long-term observation of the rats until they died, record the length of their life span. 2.2 Physiological and biochemical indexes: since the day of treatment, general state and body weight of rats were examined and recorded every month, Blood (2 ml) was obtained from the rat orbital venous plexus using a glass capillary tube, then centrifuged for 10 minutes at 4000 rpm to collect serum for biochemical analysis including blood urea nitrogen (BUN), ALT, AST, serum lipids et. Urine was collected using Metabolic Cage for 24-hour urine protein analysis. 3.

[2] = after 2 months of treatment, P<0.001

With CC(Cc1ccc(Oc2cc(N3CCN(Cc4ccccc4)CC3)nc(N)n2)cc1)(Oc1ccccc1)C(=O)O (racemic) [Compound 2, rac-3-{4-[2-Amino-6-(4-benzyl-piperazin-1-yl)-pyrimidin-4-yloxy]-phenyl}-2-methyl-2-phenoxy-propionic acid] the EC50 (PPAR-γ) was 6.76 µM, the IC50 (HepG2) was 80.6 µM and the IC50 (MCF-7) was 55 µM. The IC50 (T24) was 72 µM, the IC50 (SPC-A1) was 65.5 µM and the “24-hour urine protein level” value ([1]; 1 month) was 62.3 ± 6.3 mg/24 h. The “Blood urea nitrogen (BUN) levels” value ([1]; 1 month) was 11.55 ± 0.57 mmol/L, the “24-hour urine protein level” value ([1]; 2 month) was 64.1 ± 5.0 mg/24 h and the “Blood urea nitrogen (BUN) levels” value ([1]; 2 month) was 12.36 ± 0.77 mmol/L. The “24-hour urine protein level” value ([1]; 3 month) was 67.1 ± 4.9 mg/24 h, the “Blood urea nitrogen (BUN) levels” value ([1]; 3 month) was 12.58 ± 1.35 mmol/L and the “24-hour urine protein level” value ([1]; 4 month) was 66.3 ± 4.6 mg/24 h. The “Blood urea nitrogen (BUN) levels” value ([1]; 4 month) was 12.79 ± 1.41 mmol/L, the “24-hour urine protein level” value ([1]; 5 month) was 67.1 ± 3.6 mg/24 h and the “Blood urea nitrogen (BUN) levels” value ([1]; 5 month) was 13.10 ± 1.64 mmol/L. For the same compound, the “24-hour urine protein level” value ([1]; 6 month) was 66.0 ± 8.6 mg/24 h, the “Blood urea nitrogen (BUN) levels” value ([1]; 6 month) was 13.26 ± 1.05 mmol/L and the “24-hour urine protein level” value ([1]; 7 month) was 64.4 ± 2.8 mg/24 h. For the same compound, the “Blood urea nitrogen (BUN) levels” value ([1]; 7 month) was 12.60 ± 1.40 mmol/L, the “24-hour urine protein level” value ([1]; 8 month) was 70.4 ± 8.8 mg/24 h and the “Blood urea nitrogen (BUN) levels” value ([1]; 8 month) was 13.16 ± 1.73 mmol/L. The “24-hour urine protein level” value ([1]; 9 month) was 67.8 ± 3.2 mg/24 h, the “Blood urea nitrogen (BUN) levels” value ([1]; 9 month) was 12.87 ± 2.72 mmol/L and the “24-hour urine protein level” value ([1]; 10 month) was 70.0 ± 5.9 mg/24 h. For the same compound, the “Blood urea nitrogen (BUN) levels” value ([1]; 10 month) was 13.17 ± 3.70 mmol/L, the “24-hour urine protein level” value ([1]; baseline) was “Non-detected” and the “Blood urea nitrogen (BUN) levels” value ([1]; baseline) was 4.97 ± 0.67 mmol/L. For the same compound, the “average 24-hour urine protein level compared with the negative control group” value [1, 2] was “lower”, the “average BUN level compared with control group” value [1, 2] was “lower” and the “life span of Han:SPRD rats” value ([1]; at suitable dose, FIG. 1) was “prolong the life span”. The “change in body weight” value ([1]; rat, in vivo) was “no statistically significant change”, the “poisonous and side effects” value ([1]; rat, in vivo) was “without any obvious poisonous and side effects” and the “serum ALT” value ([1]; rat, in vivo) was “within the normal range”. The “serum AST” value ([1]; rat, in vivo) was “within the normal range”, the serum lipids ([1]; rat, in vivo) was “within the normal range” and the average survival time ([1]; treatment group, long-term, 2 rats still alive) was no less than 451.1 days.

For CC(Cc1ccc(Oc2cc(N3CCN(Cc4ccc(F)cc4)CC3)nc(N)n2)cc1)(Oc1ccccc1)C(=O)O (centres unmarked) [Compound 7, 3-{4-{2-Amino-6-[4-(4-fluoro-benzyl)-piperazin-1-yl]-pyrimidin-4-yloxy}-phenyl}-2-methyl-2-phenoxy-propionic acid], the IC50 (HepG2) was greater than 50 µM, the IC50 (MCF-7) was greater than 50 µM and the melting point was 107 to 109 °C. For the same compound, the IC50 (T24) was greater than 50 µM and the IC50 (SPC-A1) was greater than 50 µM.

Compound CC(Cc1ccc(Oc2cc(N3CCN(Cc4ccc(C(F)(F)F)cc4)CC3)nc(N)n2)cc1)(Oc1ccccc1)C(=O)O (centres unmarked) [Compound 8, 3-{4-{2-Amino-6-[4-(4-trifluoromethyl-benzyl)-piperazin-1-yl]-pyrimidin-4-yloxy}-phenyl}-2-methyl-2-phenoxy-propionic acid] has an IC50 (HepG2) greater than 50 µM, an IC50 (MCF-7) of 28.5 µM and a melting point of 114 to 115 °C. For the same compound, the IC50 (T24) was 36.2 µM and the IC50 (SPC-A1) was 42.5 µM.

In the case of CC(Cc1ccc(Oc2cc(N3CCN(Cc4ccc(Cl)cc4)CC3)nc(N)n2)cc1)(Oc1ccccc1)C(=O)O (centres unmarked) [Compound 13, 3-{4-{2-Amino-6-[4-(4-chloro-benzyl)-piperazin-1-yl]-pyrimidin-4-yloxy}-phenyl}-2-methyl-2-phenoxy-propionic acid], the IC50 (HepG2) is reported as greater than 50 µM, the IC50 (MCF-7) is reported as 48.9 µM and the melting point is reported as 103 to 105 °C. It also gave an IC50 (T24) of 45.6 µM and an IC50 (SPC-A1) greater than 50 µM.

For COc1ccc(OC(C)(Cc2ccc(Oc3cc(N4CCN(Cc5ccccc5)CC4)nc(N)n3)cc2)C(=O)O)cc1 (centres unmarked) [Compound 30, 3-{4-[2-Amino-6-(4-benzyl-piperazin-1-yl)-pyrimidin-4-yloxy]-phenyl}-2-(4-methoxy-phenoxy)-2-methyl-propionic acid], the EC50 (PPAR-γ) was 5.75 µM, the IC50 (HepG2) was greater than 50 µM and the IC50 (MCF-7) was 42.8 µM. The IC50 (T24) was greater than 50 µM and the IC50 (SPC-A1) was 38.9 µM.

Cc1ccc(OC(C)(Cc2ccc(Oc3cc(N4CCN(Cc5ccccc5)CC4)nc(N)n3)cc2)C(=O)O)cc1 (centres unmarked) [Compound 31, 3-{4-[2-Amino-6-(4-benzyl-piperazin-1-yl)-pyrimidin-4-yloxy]-phenyl}-2-methyl-2-p-tolyloxy-propionic acid] gave an EC50 (PPAR-γ) of 3.8 µM, an IC50 (HepG2) of 45.5 µM and an IC50 (MCF-7) of 29.3 µM. It also gave an IC50 (T24) of 40.8 µM and an IC50 (SPC-A1) of 35.3 µM.

In the case of CC(Cc1ccc(Oc2cc(N3CCN(Cc4ccccc4)CC3)nc(N)n2)cc1)(Oc1ccc(C(F)(F)F)cc1)C(=O)O (centres unmarked) [Compound 32, 3-{4-[2-Amino-6-(4-benzyl-piperazin-1-yl)-pyrimidin-4-yloxy]-phenyl}-2-methyl-2-(4-trifluoromethyl-phenoxy)-propionic acid], the EC50 (PPAR-γ) is reported as 2.24 µM, the IC50 (HepG2) is reported as 30 µM and the IC50 (MCF-7) is reported as 34.2 µM. For the same compound, the IC50 (T24) was 37.7 µM and the IC50 (SPC-A1) was 28 µM.

Compound CC(Cc1ccc(Oc2cc(N3CCN(Cc4ccco4)CC3)nc(N)n2)cc1)(Oc1ccccc1)C(=O)O (centres unmarked) [Compound 37, 3-{4-[2-Amino-6-(4-furan-2-ylmethyl-piperazin-1-yl)-pyrimidin-4-yloxy]phenyl}-2-methyl-2-phenoxy-propionic acid] has an EC50 (PPAR-γ) of 3.89 µM, an IC50 (HepG2) greater than 50 µM and an IC50 (MCF-7) of 47.6 µM. The IC50 (T24) was 40.6 µM and the IC50 (SPC-A1) was 37.6 µM.
